PubChem BioAssay (NCI)
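Exposure lasted 48 hours, with cells grown in 96-well plates and compounds tested at five concentrations. GI50 marks 50% less growth. The concentration for full growth arrest is given as TGI.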

Experiments:
Assay in all cases: DTP human tumour cell line panel, 48 h
786-0 renal = system: 786-0 renal
A498 renal = system: A498 renal
A549 NSCLC = system: A549 NSCLC
ACHN renal = system: ACHN renal
CAKI-1 renal = system: CAKI-1 renal
CCRF-CEM leukemia = system: CCRF-CEM leukemia
COLO 205 colon = system: COLO 205 colon
DU-145 prostate = system: DU-145 prostate
EKVX NSCLC = system: EKVX NSCLC
HCC-2998 colon = system: HCC-2998 colon
HCT-116 colon = system: HCT-116 colon
HCT-15 colon = system: HCT-15 colon
HOP-62 NSCLC = system: HOP-62 NSCLC
HOP-92 NSCLC = system: HOP-92 NSCLC
HT29 colon = system: HT29 colon
IGROV1 ovarian = system: IGROV1 ovarian
K-562 leukemia = system: K-562 leukemia
KM12 colon = system: KM12 colon
LOX IMVI melanoma = system: LOX IMVI melanoma
M14 melanoma = system: M14 melanoma
MALME-3M melanoma = system: MALME-3M melanoma
MCF7 breast = system: MCF7 breast
MDA-MB-231 breast = system: MDA-MB-231 breast
MDA-MB-435 = system: MDA-MB-435
MDA-N = system: MDA-N
MOLT-4 leukemia = system: MOLT-4 leukemia
NCI-H226 lung = system: NCI-H226 lung
NCI-H23 lung = system: NCI-H23 lung
NCI-H460 lung = system: NCI-H460 lung
NCI-H522 lung = system: NCI-H522 lung
NCI/ADR-RES ovarian = system: NCI/ADR-RES ovarian
OVCAR-3 ovarian = system: OVCAR-3 ovarian
OVCAR-4 ovarian = system: OVCAR-4 ovarian
OVCAR-5 ovarian = system: OVCAR-5 ovarian
OVCAR-8 ovarian = system: OVCAR-8 ovarian
PC-3 prostate = system: PC-3 prostate
RXF 393 renal = system: RXF 393 renal
SF-268 CNS = system: SF-268 CNS
SF-295 CNS = system: SF-295 CNS
SF-539 CNS = system: SF-539 CNS
SK-MEL-2 melanoma = system: SK-MEL-2 melanoma
SK-MEL-28 melanoma = system: SK-MEL-28 melanoma
SK-MEL-5 melanoma = system: SK-MEL-5 melanoma
SK-OV-3 ovarian = system: SK-OV-3 ovarian
SN12C renal = system: SN12C renal
SNB-19 CNS = system: SNB-19 CNS
SNB-75 CNS = system: SNB-75 CNS
SR leukemia = system: SR leukemia
SW-620 colon = system: SW-620 colon
T-47D breast = system: T-47D breast
U251 CNS = system: U251 CNS
UACC-257 melanoma = system: UACC-257 melanoma
UACC-62 melanoma = system: UACC-62 melanoma
UO-31 renal = system: UO-31 renal
BT-549 breast = system: BT-549 breast
HL-60(TB) leukemia = system: HL-60(TB) leukemia
HS 578T breast = system: HS 578T breast
RPMI-8226 leukemia = system: RPMI-8226 leukemia
TK-10 renal = system: TK-10 renal

O=S(=O)(O)CCS
TGI (786-0 renal): > 100 µM | TGI (A498 renal): > 100 µM | TGI (A549 NSCLC): > 100 µM | TGI (ACHN renal): > 100 µM | TGI (CAKI-1 renal): > 100 µM | TGI (CCRF-CEM leukemia): > 100 µM | TGI (COLO 205 colon): > 100 µM | TGI (DU-145 prostate): > 100 µM | TGI (EKVX NSCLC): > 100 µM | TGI (HCC-2998 colon): > 100 µM | TGI (HCT-116 colon): > 100 µM | TGI (HCT-15 colon): > 100 µM | TGI (HOP-62 NSCLC): > 100 µM | TGI (HOP-92 NSCLC): > 100 µM | TGI (HT29 colon): > 100 µM | TGI (IGROV1 ovarian): > 100 µM | TGI (K-562 leukemia): > 100 µM | TGI (KM12 colon): > 100 µM | TGI (LOX IMVI melanoma): > 100 µM | TGI (M14 melanoma): > 100 µM | TGI (MALME-3M melanoma): > 100 µM | TGI (MCF7 breast): > 100 µM | TGI (MDA-MB-231 breast): > 100 µM | TGI (MDA-MB-435): > 100 µM | TGI (MDA-N): > 100 µM | TGI (MOLT-4 leukemia): > 100 µM | TGI (NCI-H226 lung): > 100 µM | TGI (NCI-H23 lung): > 100 µM | TGI (NCI-H460 lung): > 100 µM | TGI (NCI-H522 lung): > 100 µM | TGI (NCI/ADR-RES ovarian): > 100 µM | TGI (OVCAR-3 ovarian): > 100 µM | TGI (OVCAR-4 ovarian): > 100 µM | TGI (OVCAR-5 ovarian): > 100 µM | TGI (OVCAR-8 ovarian): > 100 µM | TGI (PC-3 prostate): > 100 µM | TGI (RXF 393 renal): > 100 µM | TGI (SF-268 CNS): > 100 µM | TGI (SF-295 CNS): > 100 µM | TGI (SF-539 CNS): > 100 µM | TGI (SK-MEL-2 melanoma): > 100 µM | TGI (SK-MEL-28 melanoma): > 100 µM | TGI (SK-MEL-5 melanoma): > 100 µM | TGI (SK-OV-3 ovarian): > 100 µM | TGI (SN12C renal): > 100 µM | TGI (SNB-19 CNS): > 100 µM | TGI (SNB-75 CNS): > 100 µM | TGI (SR leukemia): > 100 µM | TGI (SW-620 colon): > 100 µM | TGI (T-47D breast): > 100 µM | TGI (U251 CNS): > 100 µM | TGI (UACC-257 melanoma): > 100 µM | TGI (UACC-62 melanoma): > 100 µM | TGI (UO-31 renal): > 100 µM

COc1ccc(C2NCCc3c2[nH]c2ccccc32)cc1CN1CCN(c2ccc(F)cc2)CC1 (stereo unspecified)
GI50 (786-0 renal): 1.71 µM | TGI (786-0 renal): 3.17 µM | GI50 (A498 renal): 0.399 µM | TGI (A498 renal): 4.21 µM | GI50 (A549 NSCLC): 2.9 µM | TGI (A549 NSCLC): 9.29 µM | GI50 (ACHN renal): 1.87 µM | TGI (ACHN renal): 3.69 µM | GI50 (BT-549 breast): 7.55 µM | TGI (BT-549 breast): 20 µM | GI50 (CAKI-1 renal): 1.57 µM | TGI (CAKI-1 renal): 3.31 µM | GI50 (CCRF-CEM leukemia): 2.8 µM | TGI (CCRF-CEM leukemia): 7.19 µM | GI50 (COLO 205 colon): 1.93 µM | TGI (COLO 205 colon): 3.65 µM | GI50 (DU-145 prostate): 2.76 µM | TGI (DU-145 prostate): 7.81 µM | GI50 (HCC-2998 colon): 1.61 µM | TGI (HCC-2998 colon): 3.33 µM | GI50 (HCT-116 colon): 1.62 µM | TGI (HCT-116 colon): 3 µM | GI50 (HCT-15 colon): 1.61 µM | TGI (HCT-15 colon): 3.06 µM | GI50 (HL-60(TB) leukemia): 2.14 µM | TGI (HL-60(TB) leukemia): 4.77 µM | GI50 (HOP-62 NSCLC): 1.81 µM | TGI (HOP-62 NSCLC): 3.82 µM | GI50 (HOP-92 NSCLC): 2 µM | TGI (HOP-92 NSCLC): 5.91 µM | GI50 (HS 578T breast): 1.6 µM | TGI (HS 578T breast): 3.75 µM | GI50 (HT29 colon): 1.7 µM | TGI (HT29 colon): 3.49 µM | GI50 (IGROV1 ovarian): 2.5 µM | TGI (IGROV1 ovarian): 6.29 µM | GI50 (K-562 leukemia): 1.73 µM | TGI (K-562 leukemia): 4.09 µM | GI50 (KM12 colon): 1.86 µM | TGI (KM12 colon): 3.33 µM | GI50 (LOX IMVI melanoma): 1.64 µM | TGI (LOX IMVI melanoma): 3.09 µM | GI50 (MALME-3M melanoma): 1.88 µM | TGI (MALME-3M melanoma): 3.49 µM | GI50 (MCF7 breast): 1.66 µM | TGI (MCF7 breast): 3.27 µM | GI50 (MDA-MB-231 breast): 1.4 µM | TGI (MDA-MB-231 breast): 3.36 µM | GI50 (MDA-MB-435): 1.66 µM | TGI (MDA-MB-435): 3.06 µM | GI50 (MOLT-4 leukemia): 1.97 µM | TGI (MOLT-4 leukemia): 5.25 µM | GI50 (NCI-H226 lung): 13 µM | TGI (NCI-H226 lung): 35.1 µM | GI50 (NCI-H23 lung): 4.77 µM | TGI (NCI-H23 lung): 17 µM | GI50 (NCI-H460 lung): 1.85 µM | TGI (NCI-H460 lung): 3.49 µM | GI50 (NCI-H522 lung): 1.93 µM | TGI (NCI-H522 lung): 3.73 µM | GI50 (NCI/ADR-RES ovarian): 2.27 µM | TGI (NCI/ADR-RES ovarian): 5.89 µM | GI50 (OVCAR-3 ovarian): 2.1 µM | TGI (OVCAR-3 ovarian): 4.52 µM | GI50 (OVCAR-4 ovarian): 2.28 µM | TGI (OVCAR-4 ovarian): 7.22 µM | GI50 (OVCAR-5 ovarian): 2.13 µM | TGI (OVCAR-5 ovarian): 5.2 µM | GI50 (OVCAR-8 ovarian): 1.89 µM | TGI (OVCAR-8 ovarian): 3.95 µM | GI50 (PC-3 prostate): 2.21 µM | TGI (PC-3 prostate): 5.35 µM | GI50 (RPMI-8226 leukemia): 2.47 µM | TGI (RPMI-8226 leukemia): 5.65 µM | GI50 (RXF 393 renal): 1.37 µM | TGI (RXF 393 renal): 2.94 µM | GI50 (SF-268 CNS): 2.57 µM | TGI (SF-268 CNS): 7.82 µM | GI50 (SF-295 CNS): 1.75 µM | TGI (SF-295 CNS): 3.4 µM | GI50 (SF-539 CNS): 1.88 µM | TGI (SF-539 CNS): 3.42 µM | GI50 (SK-MEL-2 melanoma): 2.14 µM | TGI (SK-MEL-2 melanoma): 3.93 µM | GI50 (SK-MEL-28 melanoma): 1.61 µM | TGI (SK-MEL-28 melanoma): 3.05 µM | GI50 (SK-MEL-5 melanoma): 1.63 µM | TGI (SK-MEL-5 melanoma): 3.01 µM | GI50 (SK-OV-3 ovarian): 2.53 µM | TGI (SK-OV-3 ovarian): 6.01 µM | GI50 (SN12C renal): 3.47 µM | TGI (SN12C renal): 15.5 µM | GI50 (SNB-19 CNS): 3.54 µM | TGI (SNB-19 CNS): 13 µM | GI50 (SNB-75 CNS): 1.25 µM | TGI (SNB-75 CNS): 2.52 µM | GI50 (SR leukemia): 1.78 µM | TGI (SR leukemia): 5.28 µM | GI50 (SW-620 colon): 1.74 µM | TGI (SW-620 colon): 3.33 µM | GI50 (T-47D breast): 1.88 µM | TGI (T-47D breast): 3.94 µM | GI50 (TK-10 renal): 3.2 µM | TGI (TK-10 renal): 9.65 µM | GI50 (U251 CNS): 1.56 µM | TGI (U251 CNS): 2.93 µM | GI50 (UACC-257 melanoma): 1.76 µM | TGI (UACC-257 melanoma): 3.26 µM | GI50 (UACC-62 melanoma): 1.8 µM | TGI (UACC-62 melanoma): 3.32 µM | GI50 (UO-31 renal): 1.57 µM | TGI (UO-31 renal): 4.12 µM
